In patent US11344554B2, “Animal and human anti-malarial agents” (Celgene Corporation, priority 2016, dated 2022) one finds IC50 data, which are given here for 26 compounds.

SMILES strings stand for the structures. Where only a bound is given, the exact number is not on record here.

The experiment concerns Plasmodium falciparum. Briefly: Plasmodium falciparum in vitro [3H]-hypoxanthine parasite growth inhibition assay. It is filed as cell-based. Particulars: Erythrocyte, P. falciparum asexual blood stage parasites in human erythrocytes, [3H]-hypoxanthine uptake, read-out: Act Class (IC50 activity level).

Usually IC50 stands for the concentration at which inhibition is half-maximal. Regarding `CC(C)Nc1ncc2nc(Nc3cc(C(F)(F)F)cc(C(F)(F)F)c3)n(C3CCNCC3)c2n1` [Cpd 84, N8-(3,5-bis(trifluoromethyl)phenyl)-N2-isopropyl-9-(piperidin-4-yl)-9H-purine-2,8-diamine], the IC50 is below 100 nM.

For `CN(C)CCCn1c(Nc2cccc(C(F)(F)F)c2)nc2cnc(NC(C)(C)C)nc21` [Cpd 32, N2-tert-butyl-9-(3-(dimethylamino)propyl)-N8-(3-(trifluoromethyl)phenyl)-9H-purine-2,8-diamine], the 50% inhibitory concentration (IC50) fell in the range of 500 to 1200 nM.

Regarding `CC(C)(C)Nc1ncc2nc(Nc3ccc(C(F)(F)F)cc3)n(C3CCNCC3)c2n1` [Cpd 2, N2-tert-butyl-9-(piperidin-4-yl)-N8-(4-(trifluoromethyl)phenyl)-9H-purine-2,8-diamine], the IC50 is 200 to 500 nM.

As to `CC1(Nc2ncc3nc(Nc4cccc(C(F)(F)F)c4)n(C4CCNCC4)c3n2)CCOCC1` [Cpd 25, N2-(4-methyltetrahydro-2H-pyran-4-yl)-9-(piperidin-4-yl)-N8-(3-(trifluoromethyl)phenyl)-9H-purine-2,8-diamine], the IC50 lay within 500 to 1200 nM.

Consider `CC(C)(C)Nc1ncc2nc(Nc3cc(C(F)(F)F)cc(C(F)(F)F)c3)n(C3CCNCC3)c2n1` [Cpd 49, N8-(3,5-bis(trifluoromethyl)phenyl)-N2-tert-butyl-9-(piperidin-4-yl)-9H-purine-2,8-diamine], for which the IC50 is below 100 nM.

As for `CC(C)(C)Nc1ncc2nc(Nc3cc(Cl)cc(OC(F)(F)F)c3)n(C3CCNCC3)c2n1` [Cpd 48, N2-tert-butyl-N8-(3-chloro-5-(trifluoromethoxy)phenyl)-9-(piperidin-4-yl)-9H-purine-2,8-diamine], the IC50 is below 100 nM.

As to `CC(C)Nc1ncc2nc(Nc3ccc(C(F)(F)F)c(Cl)c3)n(C3CCNCC3)c2n1` [Cpd 91, N8-(3-chloro-4-(trifluoromethyl)phenyl)-N2-isopropyl-9-(piperidin-4-yl)-9H-purine-2,8-diamine], the half-maximal inhibitory concentration (IC50) was in the range of 200 to 500 nM.

Regarding `CC1(Nc2ncc3nc(Nc4cc(F)cc(Cl)c4)n(C4CCNCC4)c3n2)CC1` [Cpd 64, N8-(3-chloro-5-fluorophenyl)-N2-(1-methylcyclopropyl)-9-(piperidin-4-yl)-9H-purine-2,8-diamine], the half-inhibitory concentration (IC50) was below 100 nM.

Consider `CC(C)(C)Nc1ncc2nc(Nc3cccc(C(F)(F)F)c3)n(CCC3CCCN3)c2n1` (centres unmarked) [Cpd 19, N2-tert-butyl-9-(2-(pyrrolidin-2-yl)ethyl)-N8-(3-(trifluoromethyl)phenyl)-9H-purine-2,8-diamine], for which the IC50 is 200 to 500 nM.

For `CC(C)(C)Nc1ncc2nc(Nc3cc(Cl)cc(C(F)(F)F)c3)n(C3CCN(CCN)CC3)c2n1` [Cpd 39, 9-(1-(2-aminoethyl)piperidin-4-yl)-N2-tert-butyl-N8-(3-chloro-5-(trifluoromethyl)phenyl)-9H-purine-2,8-diamine], the IC50 is below 100 nM.

Consider `CC(C)Nc1ncc2nc(Nc3cccc(C(F)(F)F)c3)n(C3CCNCC3)c2n1` [Cpd 66, N2-isopropyl-9-(piperidin-4-yl)-N8-(3-(trifluoromethyl)phenyl)-9H-purine-2,8-diamine], for which the IC50 lay in the range of 100 to 200 nM.

Consider `FC(F)(F)c1cc(Cl)cc(Nc2nc3cnc(NC4CCC4)nc3n2C2CCNCC2)c1` [Cpd 52, N8-(3-chloro-5-(trifluoromethyl)phenyl)-N2-cyclobutyl-9-(piperidin-4-yl)-9H-purine-2,8-diamine], for which the IC50 was below 100 nM.

`CC(C)Nc1ncc2nc(Nc3cc(Cl)cc(C(F)(F)F)c3)n(C3CCNCC3)c2n1` [Cpd 44, N8-(3-chloro-5-(trifluoromethyl)phenyl)-N2-isopropyl-9-(piperidin-4-yl)-9H-purine-2,8-diamine]: the 50% inhibitory concentration (IC50) was below 100 nM.

In the case of `CC(C)(C)Nc1ncc2nc(Nc3ccnc(C(F)(F)F)c3)n(C3CCNCC3)c2n1` [Cpd 31, N2-tert-butyl-9-(piperidin-4-yl)-N8-(2-(trifluoromethyl)pyridin-4-yl)-9H-purine-2,8-diamine], the IC50 lay within 200 to 500 nM.

For the compound `CC(C)(C)Nc1ncc2nc(Nc3cccc(C(F)F)c3)n(C3CCNCC3)c2n1` [Cpd 33, N2-tert-butyl-N8-(3-(difluoromethyl)phenyl)-9-(piperidin-4-yl)-9H-purine-2,8-diamine], the half-maximal inhibitory concentration (IC50) lay in the range of 200 to 500 nM.

On to `CC(C)(C)Nc1ncc2nc(Nc3cc(Cl)cc(Cl)c3)n(C3CCN(CCN)CC3)c2n1` [Cpd 35, 9-(1-(2-aminoethyl)piperidin-4-yl)-N2-tert-butyl-N8-(3,5-dichlorophenyl)-9H-purine-2,8-diamine], for which the IC50 fell in the range of 200 to 500 nM.

Turning to `FC(F)(F)c1cc(Nc2nc3cnc(NC4CC4)nc3n2C2CCNCC2)ccc1Cl` [Cpd 80, N8-(4-chloro-3-(trifluoromethyl)phenyl)-N2-cyclopropyl-9-(piperidin-4-yl)-9H-purine-2,8-diamine], the concentration for half-maximal inhibition (IC50) was 200 to 500 nM.

`CC(N)CCn1c(Nc2cc(Cl)cc(C(F)(F)F)c2)nc2cnc(NC3CCCC3)nc21` (centres unmarked) [Cpd 111, 9-(3-aminobutyl)-N8-(3-chloro-5-(trifluoromethyl)phenyl)-N2-cyclopentyl-9H-purine-2,8-diamine]: the 50% inhibitory concentration (IC50) fell in the range of 100 to 200 nM.

In the case of `CC1(Nc2ncc3nc(Nc4cc(Cl)cc(C(F)(F)F)c4)n(C4CCNCC4)c3n2)CCC1` [Cpd 69, N8-(3-chloro-5-(trifluoromethyl)phenyl)-N2-(1-methylcyclobutyl)-9-(piperidin-4-yl)-9H-purine-2,8-diamine], the IC50 is below 100 nM.

On to `FC(F)(F)c1cc(Nc2nc3cnc(NC4CCC4)nc3n2C2CCNCC2)cc(C(F)(F)F)c1` [Cpd 86, N8-(3,5-bis(trifluoromethyl)phenyl)-N2-cyclobutyl-9-(piperidin-4-yl)-9H-purine-2,8-diamine], for which the half-maximal inhibitory concentration (IC50) fell in the range of 100 to 200 nM.

With `CC(N)CCn1c(Nc2cc(Cl)cc(C(F)(F)F)c2)nc2cnc(NC(C)(C)C)nc21` (centres unmarked) [Cpd 112, 9-(3-aminobutyl)-N2-tert-butyl-N8-(3-chloro-5-(trifluoromethyl)phenyl)-9H-purine-2,8-diamine], the IC50 is 200 to 500 nM.

Regarding `CC(C)(C)Nc1ncc2nc(Nc3ccc(Cl)cc3)n(C3CCNCC3)c2n1` [Cpd 7, N2-tert-butyl-N8-(4-chlorophenyl)-9-(piperidin-4-yl)-9H-purine-2,8-diamine], the IC50 fell in the range of 100 to 200 nM.

Regarding `FC(F)(F)c1cc(Cl)cc(Nc2nc3cnc(NC4CCCC4)nc3n2C2CCNCC2)c1` [Cpd 53, N8-(3-chloro-5-(trifluoromethyl)phenyl)-N2-cyclopentyl-9-(piperidin-4-yl)-9H-purine-2,8-diamine], the IC50 is below 100 nM.

Take `CC(C)(C)Nc1ncc2nc(Nc3cccc(C(F)(F)F)c3)n(CCCN)c2n1` [Cpd 11, 9-(3-aminopropyl)-N2-tert-butyl-N8-(3-(trifluoromethyl)phenyl)-9H-purine-2,8-diamine]: the IC50 was 200 to 500 nM.

As for `CC(C)(C)Nc1ncc2nc(Nc3cccc(C(F)(F)F)c3)n(CCC3CCNC3)c2n1` (centres unmarked) [Cpd 18, N2-tert-butyl-9-(2-(pyrrolidin-3-yl)ethyl)-N8-(3-(trifluoromethyl)phenyl)-9H-purine-2,8-diamine], the IC50 was in the range of 100 to 200 nM.

`CC1(Nc2ncc3nc(Nc4cccc(Cl)c4)n(CCN4CCCC4)c3n2)CCOCC1` [Cpd 17, N8-(3-chlorophenyl)-N2-(4-methyltetrahydro-2H-pyran-4-yl)-9-(2-(pyrrolidin-1-yl)ethyl)-9H-purine-2,8-diamine]: the IC50 lay within 500 to 1200 nM.
